For the assay, the system named is freshly isolated mononuclear cells from AML samples. The assay is described as follows: Ex vivo functional drug screen (MTS viability, AUC) on primary AML samples, compared by mutation or clinical group. It counts as cell-based, human. An excerpt: This panel contained graded concentrations of a drugs with activity against two-thirds of the tyrosine kinome as well as other non-tyrosine kinase pathways, including MAPKs, PI3K/AKT/mTOR, AMPK, ATM, Aurora kinases, CAMKs, CDKs, GSK3a/b, IκK, PKA, PKC, PLK1, and RAF. In addition, the library contained small molecule inhibitors with activity against the BCL2 family, BRD4, Hedgehog, HSP90, NOTCH/gamma-secretase, proteasome, survivin, STAT3, and WNT/beta-catenin. Drug sensitivity patterns were analyzed with respect to clinical and genetic features of tumors. We compared the average area-under-the curve (AUC) values for each drug between the de novo and transformed samples via a series of single factor ANOVAs. […] In addition, we analyzed the concordance of drug sensitivity patterns with respect to predicted target gene, gene family, or pathway for each drug. […] To create a global view of overall sensitivity or resistance of each case, we generated a heatmap of binary sensitive/resistant calls for each sample to each drug.
Correlation of drug sensitivity with mutational events was performed by assessing the range of sensitivity of cases with mutation of an individual gene (as well as co-occurring mutational events) versus cases with wild type sequence for that same gene. […] The difference in average drug sensitivity of mutant versus wild type cases for each drug/mutation pair was plotted on the horizontal axis of a volcano plot with a test for statistical significance of the comparison plotted on the vertical axis (corrected for multiple comparison false discovery rate^42; FIG. 4). […] To aid in discovery of potential mutational biomarkers of drug sensitivity, we plotted volcano plots that were specific to each individual drug (versus all possible mutational events) and for each individual gene (versus all possible drugs tested).
Ex vivo drug screens were performed on freshly isolated mononuclear cells from AML samples as previously described^41.
Ex vivo functional drug screens were performed on freshly isolated mononuclear cells from AML samples. […] Drug plates were created using inhibitors purchased from LC Laboratories and Selleck Chemicals and master stocks were reconstituted in DMSO and stored at −80° C. […] DMSO control wells and positive control wells containing a drug combination of Flavopiridol, Staurosporine and Velcade were placed on each plate, with the final concentration of DMSO ≤0.1% in all wells. Daughter plates were created using a V&P Scientific 384-well pin tool head operated by the Caliper Sciclone ALH 3000 and equipped with 0.457 mm diameter, 30 nanoliter, slotted stainless steel pins (cat num: FP1NS30). Daughter and destination plates were sealed with pealable thermal seals using a PlateLoc thermal sealer. Destination plates were stored at −20° C. for no more than three months and thawed immediately before use. Primary mononuclear cells were plated across single-agent inhibitor panels within 24 h of collection. […] After 3 d of culture at 37° C. in 5% CO2, MTS reagent (CellTiter96 AQueous One; Promega) was added, optical density was measured at 490 nm, and raw absorbance values were adjusted to a reference blank value and then used to determine cell viability (normalized to untreated control wells).
A given sample was run on one or more panels and within each panel, the majority of drugs were run without within-panel replicates. […] An additional set of ‘curve-free’ AUCs was computed for sample-inhibitor pairs run on multiple panels.
Based on the methodology used in our prior drug combination study^36, a probit regression was fit to all possible run groups using the model: (normalized_viability/100)˜1+log 10(concentration) Where for all groups there were N=7 dose-response measurements. The summary measures of curve fit were inspected and cutoffs were devised removing all runs with an AIC >12 and deviance >2.

Setting [1] is: BCOR mutation alone or co-mutation of BCOR with DNMT3A or SRSF2.

As for `N#CCNC(=O)c1ccc(-c2ccnc(Nc3ccc(N4CCOCC4)cc3)n2)cc1` [cyt387], the “sensitivity to JAK kinase inhibitors, mutant versus wild type (average AUC difference, one-way ANOVA)” value is, setting by setting: under setting [1], “no difference in sensitivity”; (co-mutation of BCOR with RUNX1) “increased sensitivity”. Also, the “drug sensitivity mutant vs wild type (average difference in AUC; top left quadrant of volcano plot)” value is “cyt387” (FLT3_ITD) and “cyt387” (NPM1:FLT3_ITD).

On to `C#Cc1cccc(Nc2ncnc3cc(OCCOC)c(OCCOC)cc23)c1` [erlotinib], for which the “drug sensitivity mutant vs wild type (average difference in AUC; top left quadrant of volcano plot)” value is “erlotinib” (FLT3_ITD:DNMT3A); “erlotinib” (NPM1); “erlotinib” (NPM1:FLT3_ITD:DNMT3A); “erlotinib” (NPM1:FLT3_ITD:TET2); “erlotinib” (NPM1:IDH1); “erlotinib” (NPM1:IDH2). In addition, where the note is “NPM1:SRSF2”, the “drug sensitivity mutant vs wild type (average difference in AUC; top left quadrant of volcano plot)” value is given as “erlotinib”.

Take JAK Inhibitor I: the “sensitivity to JAK kinase inhibitors, mutant versus wild type (average AUC difference, one-way ANOVA)” value by setting is: under setting [1], “no difference in sensitivity”; (co-mutation of BCOR with RUNX1) “increased sensitivity”.

With `CC(C)(C)c1cc(NC(=O)Nc2ccc(-c3cn4c(n3)sc3cc(OCCN5CCOCC5)ccc34)cc2)no1` [Quizartinib], the “drug sensitivity mutant vs wild type (average difference in AUC; top left quadrant of volcano plot)” value (NPM1) is listed as “quizartinib”, the “drug sensitivity mutant vs wild type (average difference in AUC; top left quadrant of volcano plot)” value (NPM1:DNMT3A) is on record as “Quizartinib”, the “drug sensitivity mutant vs wild type (average difference in AUC; top left quadrant of volcano plot)” value (NPM1:IDH2) is “quizartinib” and the “drug sensitivity mutant vs wild type (average difference in AUC; top left quadrant of volcano plot)” value (NPM1:SRSF2) is “quizartinib”.

Turning to `Cn1cc(-c2ccc3nnc(C(F)(F)c4ccc5ncccc5c4)n3n2)cn1` [JNJ-38877605], the “drug sensitivity mutant vs wild type (average difference in AUC; top left quadrant of volcano plot)” value (BCOR:RUNX1) is “JNJ-38877605”.

`Cn1c(Nc2ccc(C(F)(F)F)cc2)nc2cc(Oc3ccnc(-c4ncc(C(F)(F)F)[nH]4)c3)ccc21` [RAF265, 1-methyl-5-((2-(5-(trifluoromethyl)-1H-imidazol-2-yl)pyridin-4-yl)oxy)-N-(4-(trifluoromethyl)phenyl)-1H-benzo[d]imidazol-2-amine]: the “drug sensitivity mutant vs wild type (average difference in AUC; top left quadrant of volcano plot)” value is, setting by setting: (BCOR) “RAF265”; (WT1) “RAF265”.

Take `C[C@@H]1CCN(C(=O)CC#N)C[C@@H]1N(C)c1ncnc2[nH]ccc12` [Tofacitinib]: the “sensitivity to JAK kinase inhibitors, mutant versus wild type (average AUC difference, one-way ANOVA)” value reads like this: under setting [1], “no difference in sensitivity”; (co-mutation of BCOR with RUNX1) “increased sensitivity”. Moreover, the “drug sensitivity mutant vs wild type (average difference in AUC; top left quadrant of volcano plot)” value (ZRSR2) is given as “Tofacitinib”.

Consider `COc1cc2c(Oc3ccc(NC(=O)C4(C(=O)Nc5ccc(F)cc5)CC4)cc3F)ccnc2cc1OCCCN1CCOCC1` [Foretinib], for which the “drug sensitivity mutant vs wild type (average difference in AUC; top left quadrant of volcano plot)” value (FLT3) is on record as “Foretinib (XL880)”; the “drug sensitivity mutant vs wild type (average difference in AUC; top left quadrant of volcano plot)” value (FLT3_ITD:TET2:DNMT3A) is listed as “Foretinib”; the “drug sensitivity mutant vs wild type (average difference in AUC; top left quadrant of volcano plot)” value (FLT3_ITD:WT1) is reported as “foretinib”; the “drug sensitivity mutant vs wild type (average difference in AUC; top left quadrant of volcano plot)” value (IDH2) is reported as “Foretinib”; the “drug sensitivity mutant vs wild type (average difference in AUC; top left quadrant of volcano plot)” value (NPM1) is given as “Foretinib”; the “drug sensitivity mutant vs wild type (average difference in AUC; top left quadrant of volcano plot)” value (NPM1:DNMT3A) is reported as “foretinib”. Also, the “drug sensitivity mutant vs wild type (average difference in AUC; top left quadrant of volcano plot)” value is given as “Foretinib” (NPM1:FLT3); “foretinib” (NPM1:FLT3_ITD); “foretinib” (NPM1:FLT3_ITD:DNMT3A); “Foretinib” (NPM1:SRSF2); “foretinib” (SMC1A).

Turning to `Cn1c(=O)n(-c2ccc(C(C)(C)C#N)cc2)c2c3cc(-c4cnc5ccccc5c4)ccc3ncc21` [BEZ2345], the “drug sensitivity mutant vs wild type (average difference in AUC; top left quadrant of volcano plot)” value (RUNX1) is reported as “BEZ2345”. For the same compound, where the note is “mutation of RUNX1”, the “correlation of mutation with drug sensitivity” value was “correlated with sensitivity”.

As for `CNC(=O)c1cc(Oc2ccc(NC(=O)Nc3ccc(Cl)c(C(F)(F)F)c3)cc2)ccn1` [Sorafenib], the “drug sensitivity mutant vs wild type (average difference in AUC; top left quadrant of volcano plot)” value by setting is: (DNMT3A) “Sorafenib”; (NPM1) “Sorafenib”; (NPM1:DNMT3A) “Sorafenib”; (NPM1:IDH2) “sorafenib”; (NPM1:SRSF2) “sorafenib”; (NPM1:TET2) “Sorafenib”.

For `CS(=O)(=O)CCNCc1ccc(-c2ccc3ncnc(Nc4ccc(OCc5cccc(F)c5)c(Cl)c4)c3c2)o1` [Lapatinib], the “drug sensitivity mutant vs wild type (average difference in AUC; top left quadrant of volcano plot)” value (FLT3_ITD_IHD2) is reported as “lapitinib”; the “drug sensitivity mutant vs wild type (average difference in AUC; top left quadrant of volcano plot)” value (NPM1) is “Lapatinib”; the “drug sensitivity mutant vs wild type (average difference in AUC; top left quadrant of volcano plot)” value (NPM1:FLT3_ITD) was “lapatinib”; the “drug sensitivity mutant vs wild type (average difference in AUC; top left quadrant of volcano plot)” value (NPM1:IDH2) is recorded as “Lapatinib”; the “drug sensitivity mutant vs wild type (average difference in AUC; top left quadrant of volcano plot)” value (NPM1:SRSF2) is given as “Lapatinib”; the “drug sensitivity mutant vs wild type (average difference in AUC; top left quadrant of volcano plot)” value (SMC1A) was “lapatinib”.

As to `CCS(=O)(=O)O.COC(=O)c1ccc2c(c1)NC(=O)/C2=C(\Nc1ccc(N(C)C(=O)CN2CCN(C)CC2)cc1)c1ccccc1` [Vargetef], the “drug sensitivity mutant vs wild type (average difference in AUC; top left quadrant of volcano plot)” value is “vargetef” (FLT3_ITD); “vargetef” (FLT3_ITD:DNMT3A); “vargetef” (FLT3_ITD:FLT3); “vargetef” (FLT3_ITD:TET2); “Vargetef” (FLT3_ITD:TET2:DNMT3A); “vargetef” (FLT3_ITD_IHD2). Further, the “drug sensitivity mutant vs wild type (average difference in AUC; top left quadrant of volcano plot)” value (IDH2) is “Vargetef”; the “drug sensitivity mutant vs wild type (average difference in AUC; top left quadrant of volcano plot)” value (NPM1) is given as “Vagetef”; the “drug sensitivity mutant vs wild type (average difference in AUC; top left quadrant of volcano plot)” value (NPM1:FLT3_ITD) was “vargetef”; the “drug sensitivity mutant vs wild type (average difference in AUC; top left quadrant of volcano plot)” value (NPM1:FLT3_ITD:DNMT3A) is given as “vargetef”; the “drug sensitivity mutant vs wild type (average difference in AUC; top left quadrant of volcano plot)” value (NPM1:FLT3_ITD:TET2) is “vargetef”; the “drug sensitivity mutant vs wild type (average difference in AUC; top left quadrant of volcano plot)” value (NPM1:IDH2) is recorded as “Vargetef”. The “drug sensitivity mutant vs wild type (average difference in AUC; top left quadrant of volcano plot)” value runs as follows: (NPM1:SRSF2) “Vargetef”; (NPM1:TET2: DNMT3A) “Vargetef”.

The values are drawn from US12268690B2, “Treatments for mutations in acute myeloid leukemia” (OREGON HEALTH & SCIENCE UNIVERSITY, priority 2018, dated 2025).
